Data published in US6355799B1, “Substituted benzene compounds, process for their preparation, and herbicidal and defoliant compositions containing them” (ISK Americas Incorporated, priority 1997, dated 2002).

Experiments:
Type in all cases: in vivo
[1] = tested on: large crabgrass (Digitaria sanguinalis, DIGSA); test: Post-emerge test, greenhouse herbicide activity screening; details: Digitaria sanguinalis, post-emergence, 336 h, post-emerge, phytotoxicity rating 0-100 at 14 days after application, read-out: Post-emerge Herbicidal Activity DIGSA
How it was run: (§1)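 Applied at 15–1000 g ai/ha from acetone in 187 l/ha spray volume. Post-emergence applications included 0.25% v/v non-ionic surfactant and reached plants sown 8–21 days before. Pre-emergence applications were incorporated by surface watering. Efficacy or crop damage was rated on a 0–100 scale after 14 days.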

[2] = tested on: lambsquarters (Chenopodium album, CHEAL); test: as above; details: Chenopodium album, post-emergence, 336 h, post-emerge, phytotoxicity rating 0-100 at 14 days after application, read-out: Post-emerge Herbicidal Activity CHEAL
How it was run: as §1

[3] = tested on: sicklepod (Cassia obtusifolia, CASOB); test: as above; details: Senna obtusifolia, post-emergence, 336 h, post-emerge, phytotoxicity rating 0-100 at 14 days after application, read-out: Post-emerge Herbicidal Activity CASOB
How it was run: as §1

[4] = tested on: johnsongrass (Sorghum halepense, SORHA); test: as above; details: Sorghum halepense, post-emergence, 336 h, post-emerge, phytotoxicity rating 0-100 at 14 days after application, read-out: Post-emerge Herbicidal Activity SORHA
How it was run: as §1

[5] = tested on: green foxtail (Setaria viridis, SETVI); test: as above; details: Setaria viridis, post-emergence, 336 h, post-emerge, phytotoxicity rating 0-100 at 14 days after application, read-out: Post-emerge Herbicidal Activity SETVI
How it was run: as §1

[6] = tested on: redroot pigweed (Amaranthus retroflexus, AMARE); test: Pre-emerge test, greenhouse herbicide activity screening; details: Amaranthus retroflexus, pre-emergence, 336 h, pre-emerge, phytotoxicity rating 0-100 at 14 days after application, read-out: Pre-emerge Herbicidal Activity AMARE
How it was run: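 Sandy loam pots; pre-emerge: sown 1 d pre-spray, surface-watered after, then bottom-watered. Post-emerge: sown 8–21 d before, 2–3 leaf stage, + 0.25% v/v NIS, bottom-watered. Acetone, 187 l/ha track spray, 15–1000 g ai/ha. 0–100 injury score, day 14.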

[7] = tested on: large crabgrass (Digitaria sanguinalis, DIGSA); test: as above; details: Digitaria sanguinalis, pre-emergence, 336 h, pre-emerge, phytotoxicity rating 0-100 at 14 days after application, read-out: Pre-emerge Herbicidal Activity DIGSA
How it was run: as §1

[8] = tested on: ivyleaf morningglory (Ipomoea hederacea, IPOHE); test: as above; details: Ipomoea, pre-emergence, 336 h, pre-emerge, phytotoxicity rating 0-100 at 14 days after application, read-out: Pre-emerge Herbicidal Activity IPOHE
How it was run: as §1

[9] = tested on: velvetleaf (Abutilon theophrasti, ABUTH); test: as above; details: Abutilon theophrasti, pre-emergence, 336 h, pre-emerge, phytotoxicity rating 0-100 at 14 days after application, read-out: Pre-emerge Herbicidal Activity ABUTH
How it was run: as §1

[10] = tested on: lambsquarters (Chenopodium album, CHEAL); test: as above; details: Chenopodium album, pre-emergence, 336 h, pre-emerge, phytotoxicity rating 0-100 at 14 days after application, read-out: Pre-emerge Herbicidal Activity CHEAL
How it was run: as §1

[11] = tested on: sicklepod (Cassia obtusifolia, CASOB); test: as above; details: Senna obtusifolia, pre-emergence, 336 h, pre-emerge, phytotoxicity rating 0-100 at 14 days after application, read-out: Pre-emerge Herbicidal Activity CASOB
How it was run: as §1

[12] = tested on: barnyardgrass (Echinochloa crus-galli, ECHCG); test: as above; details: Echinochloa crus-galli, pre-emergence, 336 h, pre-emerge, phytotoxicity rating 0-100 at 14 days after application, read-out: Pre-emerge Herbicidal Activity ECHCG
How it was run: as §1

[13] = tested on: johnsongrass (Sorghum halepense, SORHA); test: as above; details: Sorghum halepense, pre-emergence, 336 h, pre-emerge, phytotoxicity rating 0-100 at 14 days after application, read-out: Pre-emerge Herbicidal Activity SORHA
How it was run: as §1

[14] = tested on: green foxtail (Setaria viridis, SETVI); test: as above; details: Setaria viridis, pre-emergence, 336 h, pre-emerge, phytotoxicity rating 0-100 at 14 days after application, read-out: Pre-emerge Herbicidal Activity SETVI
How it was run: as §1

Q: With CC(C)Oc1c(Cl)cc(F)c(N2C(=O)C3=C(CCCC3)C2=O)c1N [Compound 8-4, N-(2-amino-4-chloro-6-fluoro-3-isopropyloxyphenyl)tetrahydrophthalimide] as the molecule, how does the pest or weed control at 63 g/ha ([1]; 63 g ai/ha) read?
A: The pest or weed control at 63 g/ha was 0%.

Q: What about the pest or weed control at 250 g/ha ([1]; 250 g ai/ha) of the same molecule?
A: The pest or weed control at 250 g/ha was 0%.

Q: What about the pest or weed control at 63 g/ha ([2]; 63 g ai/ha) of the same molecule?
A: Its pest or weed control at 63 g/ha is 70%.

Q: What about the pest or weed control at 250 g/ha ([2]; 250 g ai/ha) of the same molecule?
A: The pest or weed control at 250 g/ha was 90%.

Q: What about the pest or weed control at 63 g/ha ([3]; 63 g ai/ha) of the same molecule?
A: Its pest or weed control at 63 g/ha is 0%.

Q: What about the pest or weed control at 250 g/ha ([3]; 250 g ai/ha) of the same molecule?
A: Its pest or weed control at 250 g/ha is 10%.

Q: What about the pest or weed control at 63 g/ha ([4]; 63 g ai/ha) of the same molecule?
A: The pest or weed control at 63 g/ha was 0%.

Q: And the pest or weed control at 250 g/ha ([4]; 250 g ai/ha)?
A: The pest or weed control at 250 g/ha was 0%.

Q: What about the pest or weed control at 63 g/ha ([5]; 63 g ai/ha) of the same molecule?
A: The pest or weed control at 63 g/ha was 0%.

Q: What about the pest or weed control at 250 g/ha ([5]; 250 g ai/ha) of the same molecule?
A: The pest or weed control at 250 g/ha was 30%.

Q: What about the pest or weed control at 63 g/ha ([6]; rate 63 g ai/ha) of the same molecule?
A: Its pest or weed control at 63 g/ha is 60%.

Q: What about the pest or weed control at 250 g/ha ([6]; rate 250 g ai/ha) of the same molecule?
A: Its pest or weed control at 250 g/ha is 100%.

Q: And the pest or weed control at 63 g/ha ([7]; rate 63 g ai/ha)?
A: Its pest or weed control at 63 g/ha is 20%.

Q: What about the pest or weed control at 250 g/ha ([7]; rate 250 g ai/ha) of the same molecule?
A: Its pest or weed control at 250 g/ha is 20%.

Q: What about the pest or weed control at 63 g/ha ([8]; rate 63 g ai/ha) of the same molecule?
A: The pest or weed control at 63 g/ha was 0%.

Q: What about the pest or weed control at 250 g/ha ([8]; rate 250 g ai/ha) of the same molecule?
A: Its pest or weed control at 250 g/ha is 0%.

Q: What about the pest or weed control at 63 g/ha ([9]; rate 63 g ai/ha) of the same molecule?
A: Its pest or weed control at 63 g/ha is 0%.

Q: What about the pest or weed control at 250 g/ha ([9]; rate 250 g ai/ha) of the same molecule?
A: The pest or weed control at 250 g/ha was 90%.

Q: And the pest or weed control at 63 g/ha ([10]; rate 63 g ai/ha)?
A: The pest or weed control at 63 g/ha was 80%.

Q: What about the pest or weed control at 250 g/ha ([10]; rate 250 g ai/ha) of the same molecule?
A: The pest or weed control at 250 g/ha was 99%.

Q: And the pest or weed control at 63 g/ha ([11]; rate 63 g ai/ha)?
A: Its pest or weed control at 63 g/ha is 0%.

Q: What about the pest or weed control at 250 g/ha ([11]; rate 250 g ai/ha) of the same molecule?
A: The pest or weed control at 250 g/ha was 0%.

Q: What about the pest or weed control at 63 g/ha ([12]; rate 63 g ai/ha) of the same molecule?
A: The pest or weed control at 63 g/ha was 0%.

Q: And the pest or weed control at 250 g/ha ([12]; rate 250 g ai/ha)?
A: Its pest or weed control at 250 g/ha is 0%.

Q: And the pest or weed control at 63 g/ha ([13]; rate 63 g ai/ha)?
A: The pest or weed control at 63 g/ha was 0%.

Q: And the pest or weed control at 250 g/ha ([13]; rate 250 g ai/ha)?
A: Its pest or weed control at 250 g/ha is 20%.

Q: What about the pest or weed control at 63 g/ha ([14]; rate 63 g ai/ha) of the same molecule?
A: Its pest or weed control at 63 g/ha is 30%.

Q: What about the pest or weed control at 250 g/ha ([14]; rate 250 g ai/ha) of the same molecule?
A: Its pest or weed control at 250 g/ha is 70%.
